The term solubility denotes the concentration that dissolves in the medium under given conditions. Low values mean a poorly soluble substance, high ones a readily soluble substance.

SMILES strings stand for the structures.

This is an account of results in patent publication US20260250524A1, “METAL-PHENOLIC NANOPATTERNS AND METHODS OF MAKING AND USING THE SAME” (NORTHWESTERN UNIVERSITY, priority 2023, published 2026).

A short description of the data set: Solubility of polyphenols in water. Type of data set: physicochemical. An excerpt: Methods of the disclosure can be used to design functional nanopatterns with tunable properties (e.g., mechanical properties that can be varied based on the strength of coordination between the metal ion and polyphenol). For example, the stability and mechanical properties of nanopatterns can be varied based on the strength of coordination between the metal ion and the polyphenol. […] The polymeric, multitopic structure of large polyphenols like TA can provide greater binding affinity to various substrates. These polyphenols also have other different characteristics, such as water solubility. […] This can broaden the range of ink concentrations that are suitable for tip-directed patterning.
Other inks based on different polyphenols (GA, ECG, and EGCG) were prepared according to similar protocols. […] However, ECG had limited solubility of <1 mg/mL in water. Therefore, 0.5 mg/mL was used for ECG-based inks. Unless otherwise noted, the concentration of polyphenol was 5 mg mL^−1 and the molar ratio of polyphenol to metal ion was 1:1. For GA-based inks, the molar ratio of GA to metal ion was 10:1. For the EGCG-Ni ink, the molar ratio of EGCG to Ni was 5:1. These molar ratios were determined after considering the solubility of each metal salt and the molecular weight of each polyphenol.

Consider `O=C(O[C@@H]1Cc2c(O)cc(O)cc2O[C@@H]1c1ccc(O)c(O)c1)c1cc(O)c(O)c(O)c1` [ECG, epicatechin gallate], for which the solubility (in water) is below 1000 µg/mL. Regarding `O=C(OC[C@H]1O[C@@H](OC(=O)c2cc(O)c(O)c(OC(=O)c3cc(O)c(O)c(O)c3)c2)[C@H](OC(=O)c2cc(O)c(O)c(OC(=O)c3cc(O)c(O)c(O)c3)c2)[C@@H](OC(=O)c2cc(O)c(O)c(OC(=O)c3cc(O)c(O)c(O)c3)c2)[C@@H]1OC(=O)c1cc(O)c(O)c(OC(=O)c2cc(O)c(O)c(O)c2)c1)c1cc(O)c(O)c(OC(=O)c2cc(O)c(O)c(O)c2)c1` [TA, Tannic acid], the “water solubility relative to GA, ECG, and EGCG” value (comparison in words) is recorded as “substantially higher solubility”.
